In patent publication US20250127896A1, “CHIMERIC TIM4 RECEPTORS AND USES THEREOF” (CERO THERAPEUTICS HOLDINGS, INC., priority 2021, published 2025):

B1: CER 1183: wildtype human Tim4, SEQ ID NO:20; control molecule lacking intracellular T-cell signaling domains (protein)
chain: MSKEPLILWLMIEFWWLYLTPVTSETVVTEVLGHRVTLPCLYSSWSHNSNSMCWGKDQCPYSGCKEALIRTDGMRVTSRKSAKYRLQGTIPRGDVSLTILNPSESDSGVYCCRIEVPGWFNDVKINVRLNLQRASTTTHRTATTTTRRTTTTSPTTTRQMTTTPAALPTTVVTTPDLTTGTPLQMTTIAVFTTANTCLSLTPSTLPEEATGLLTPEPSKEGPILTAESETVLPSDSWSSVESTSADTVLLTSKESKVWDLPSTSHVSMWKTSDSVSSPQPGASDTAVPEQNKTTKTGQMDGIPMSMKNEMPISQLLMIIAPSLGFVLFALFVAFLRGKLMETYCSQKHTRLDYIGDSKNVLNDVQHGREDEDGLFTL

Legend:
[1] = test system: Jeko1 TMEM30A−/− cells; assay: Uptake/engulfment of pHrodo-labeled JeKo-1 PS+ (TMEM30A−/−) cells by CER T cells; assay type: cell-based; conditions: pHrodo label, in vitro co-culture
Experimental: FIG. 20: FACs and imaging-based detection of pHrodo dye-labeled tumor cell phagocytosis and endocytosis.
Statistical analysis was performed using 2-way ANOVA.

[2] = test system: Kuramochi cells; assay: Kuramochi co-culture with chimeric Tim4 receptor T cells and Niraparib (IncuCyte); assay type: cell-based; conditions: Niraparib alone
Experimental: (§1) FIG. 7A: Flow cytometry measurement of surface PtdSer. Kuramochi cells were treated with 1.56 or 25 μM Niraparib or with equivalent volume of DMSO (control). 48 hours later samples were trypsinized and stained using a Tim4-Fc followed by a fluorescently-labeled secondary antibody to the Tim4-Fc. FIG. 7B: Kuramochi cells pre-treated for ˜20 hours with 1.56 μM Niraparib were co-cultured with pCTX133 and Untransduced CD4 T cells from donor 32 at a 2:1 T cell: Kuramochi ratio and a final Niraparib concentration of 1.56 μM. […] All data were collected via IncuCyte.
(§2) In ovarian tumors, poly (ADP-ribose) polymerase (PARP) inhibitors, such as Niraparib, are clinically approved drugs which target DNA damage response pathways. Responses are rarely complete, with relapse common after treatment. To induce Ptd-Ser exposure, BRCA-2 mutated Kuramochi cell line was treated with therapeutic doses of the PARP inhibitor Niraparib.

[3] = test system: A2780 ovarian cancer cells; assay: Viability and phosphatidylserine exposure of A2780 cells treated with PARP inhibitors (annexin V); assay type: cell-based, human; conditions: for effective concentration that killed 25% cells (EC25): A2780 cells; for phosphatidylserine exposure on viable A2780 cells: subtherapeutic doses, 96 hours
Experimental: Viability (FIG. 31A) and phosphatidylserine (PS) exposure (FIG. 31B) of A2780 cells treated with niraparib or olaparib (both at 0.25 to 6 μM) at 96 hours.
(§3) At day 0, media was exchanged and donor T cells from three subjects (FIG. 28) transduced with CER-1234, CER-1236, or control CER-1183 (FIG. 27A) were added at various effector:target ratios to A2780 cells treated with PARPi to assess chimeric Tim4 receptor-T cell activation, cytokine production, proliferation, and cytotoxic responses. Chimeric Tim4 receptor-T cells immunophenotyping and bulk supernatant analysis was performed on day 2 and day 5 following initiation of co-culture.
Phosphatidylserine exposure on A2780 ovarian cancer cells upon treatment with the small molecule PARP inhibitors niraparib or olaparib was evaluated by annexin v staining to determine the appropriate drug dose. Phosphatidylserine targeting Tim-4 CER constructs designed to enhance cytotoxicity and target-dependent tumor cell fragment uptake were engineered. […] CER-1250 has the same intracellular signaling domains as CER1236 but has a mutated IgV domain with AAAA substitution to abrogate phosphatidylserine binding. Niraparib (0.5 μM) and olaparib (1.5 μM) were used to expose phosphatidylserine on the surface of A2780 cells for CER T cell recognition and cytotoxicity, T-cell activation, and cytokine responses were evaluated. Uptake of antigen by CER-1236 T cells was modeled with human papilloma virus E7 antigen-expressing squamous carcinoma (SCC152) TMEM30A phospholipid flippase knockout cells. […] E7 antigen presentation by CER-1236 T cells was assayed by surface expression of HLA-DR, a marker of T cell activation, on autologous HLA-A2-restricted E7 TCR T cells.
The induction of surface phosphatidylserine expression on A2780 ovarian cells treated with the PARP inhibitors olaparib and niraparib was measured by flow cytometry (FC) using annexin V.

[4] = test system: A2780 cells; conditions: compared to untreated
Experimental: FIG. 34B: At 120 hours, the ratio of cells remaining in treated samples compared to untreated A2780 samples was quantified using the incucyte data from FIG. 34A. FIG. 34C: Proliferation of CER T cells in co-culture assays.
as §3
CER T-cell cytotoxic function was evaluated using the Incucyte® live-cell analysis system in co-culture assays with A2780 cells. A2780 cells engineered to constitutively express mCherry were pretreated with 1.5 μM olaparib, 0.5 μM niraparib or no drug for 96 hours. CER T cells (expanded for 6 days after transduction) in T-cell optimizer media containing IL-2, IL-7, and IL-15 were co-cultured with A2780 cells at an effector:target (E:T) ratio of 1:2 in the presence of the same concentrations of olaparib or niraparib.

[5] = test system: Kuramochi cells; conditions: 1.56 or 25 μM Niraparib, 48 hours
Experimental: as §1, §2

[6] = test system: REC-1 cells; assay: Phagocytosis of pHrodo-labeled ibrutinib-treated REC-1 cells by CER T cells; assay type: cell-based; conditions: REC-1 pretreated 10 μM ibrutinib, 16 and 40 hours of co-culture
From the text: FIG. 13A: Representative flow cytometry histograms showing engulfment of pHrodo red-labeled REC-1 target cells by CER1234, CER1161, and CER1183 T cells. FIG. 13B: Graphical summary of flow cytometry data showing engulfment of pHrodo red-labeled REC-1 target cells by CER1234, CER1161, and CER1183 T cells. * P<0.01, ** P<0.001, *** P<0.0001; mean+SD, n=4. FIG. 13C: Representative fluorescence microscopy images (at 40×) showing engulfment of pHrodo red-labeled REC-1 target cells by CER1234, CER1161, and CER1183 T cells. FIG. 13D: Engulfed pHrodo-green-labeled REC-1 tumor fragments co-localize into Lyso-tracker red-labeled lysosomes.
Phagocytosis was assessed in co-culture assays of REC-1 cells with CER T cells. […] The percentage of pHrodo red-positive cells was determined by flow cytometry after 16 or 40 hours of co-culture. The localization of tumor fragments in CER T-cell lysosomal compartments was assessed in a separate experiment with REC-1 cells labeled with pHrodo green; following co-culture, all cells were labeled with Lyso-tracker red. Visualization of engulfment was performed by fluorescence microscopy. 1-way ANOVA with Dunnett's post hoc test was performed compared with untransduced T cells.

[7] = test system: REC-1 cells; assay: CER T cell cytotoxicity against REC-1 mCherry cells with ibrutinib (Incucyte); assay type: cell-based; conditions: REC-1 cells
From the text: FIG. 38: CER1236 T cells have enhanced and more complete cytotoxic effect against Ibrutinib-treated REC-1 MCL cells but not untreated REC-1 MCL cells.
Ibrutinib was washed off prior to co-culture with CER T cells. […] Total fluorescence of REC-1 mCherry cells decreased as cytotoxicity occurred.

[8] = test system: REC-1 cells; assay: Cytokine induction in CER T / REC-1 co-cultures (multiparametric ELISA); assay type: cell-based; conditions: co-culture with REC-1 cells, 0.5 μM ibrutinib, 96 hours
Experimental: FIGS. 16A-16H: Induction of Cytokines in Ibrutinib-Treated Co-Cultures of CER1183 and CER1234 T cells and REC-1 Target Cells. Samples depicted in bar graphs from left to right, untransduced, CER-1183, and CER-1234. FIG. 16A: TNFα induction. FIG. 16B: IL-2 induction. FIG. 16C: IFNγ. FIG. 16D: IL-5 induction. FIG. 16E: IL-6 induction. FIG. 16F: IL-10 induction. FIG. 16G: IL-4 induction. FIG. 16H: granzyme B induction.
Cytokine induction was assessed by multiparametric ELISA using conditioned supernatants harvested after 96 hours in the cytotoxicity assay described above.
(§4) CER T-cell activation was assessed by measuring induction of IFN-gamma by plate- and cell-based assays. Single induction plate assay: varying concentrations of phosphatidylserine (PS) or phosphatidylethanolamine (PE), a control membrane phospholipid not recognized by wild type TIM-4 (wtTIM-4), were coated onto high-binding tissue culture plates. CER T cells were added and IFN-γ levels were measured 24 hours after ligand exposure by ELISA. EC50 concentrations were determined by nonlinear regression (agonist vs. response-variable slope (4 parameters)). Induction by recursive stimulation plate assay: CER T cells were added to phosphatidylserine coated plates (2.5-20 μg/mL PS coating). Five days later, CER T cells were transferred to uncoated plates with fresh T cell optimizer media for 24 hours. Then, CER T cells were transferred again to a fresh PS coated plate. Supernatant was collected to assess IFN-γ induction by ELISA at various timepoints during re-stimulation (24, 72, and 120 hours). Cell-based assay: cytokine induction was assessed by multiparametric ELISA using conditioned supernatants harvested after 120 hours from the cytotoxicity assay described below.

[9] = test system: REC-1 cells; assay: T-cell activation markers PD-1 and 4-1BB in co-culture with REC-1 cells (flow cytometry); assay type: cell-based; conditions: co-culture with REC-1 cells in the presence of 0.5 μM ibrutinib, 96 hours
Experimental: FIGS. 15A-15B: Induction of Cell-Surface Markers of T-Cell Activation in Ibrutinib-Treated Co-Cultures of CER1183 and CER1234 T cells and REC-1 Target Cells. Samples depicted in bar graphs from left to right, untransduced, CER-1183, and CER-1234. FIG. 15A: PD-1 expression in co-cultures. FIG. 15B: 4-1BB expression in co-cultures.
T-cell activation markers programmed death-1 (PD-1) and 4-1BB were evaluated on viable CD3+ T cells by flow cytometry using commercially available fluorochrome-conjugated antibodies. […] Assays were conducted 96 hours after initiation of co-culture of CER T cells with REC-1 cells.

[10] = test system: phosphatidylserine (PS); assay: Single induction plate assay: IFN-γ by CER T cells on plate-bound phosphatidylserine (ELISA); assay type: cell-based; conditions: plate-bound PS
From the text: (§5) FIGS. 19A-19C: CER T cells are activated and produce IFN-γ in response to phosphatidylserine engagement in a cell-free in vitro system. FIG. 19A: IFN-γ production in response phosphatidylserine (PS). IFN-γ production was induced in CER-1236 and CER-1234 T cells stimulated with PS (FIG. 19A), but not with phosphatidylethanolamine (PE) (FIG. 19B). […] FIG. 19C: CER1236 T cells are capable of recursive stimulation in vitro. Recursive IFN-γ induction with 3 serial stimulations at the indicated time points following a 24-hour rest after the first stimulation.
as §5, with “FIG. 33A-33C:” for “FIGS. 19A-19C:”, “33A:” for “19A:”, “33A),” for “19A),”, “33B).” for “19B).”, “33C:” for “19C:”
FIG. 44 are graphs showing IFNγ production in CER1234 T cells (left) or CER1236 T cells (right) from three donors in response to titrating doses of plate-bound phosphatidylserine.
FIG. 45 are graphs showing IFNγ production in CER1234 T cells or CER1236 T cells by donor in response to increasing doses of plate-bound phosphatidylserine.
FIG. 46 are graphs showing IFNγ production in CER1234 T cells or CER1236 T cells by donor in response to increasing doses of plate-bound phosphatidylserine at day 14 post-thaw.
FIG. 47 are graphs showing T cell expansion (left), IFNγ production (center), and cell viability (right) in CER1236 T cells in response to increasing doses of plate-bound phosphatidylserine.
FIG. 48 are graphs showing T cell expansion (left), IFNγ production (center), and cell viability (right) in CER1234 T cells in response to increasing doses of plate-bound phosphatidylserine.
as §4
T cells obtained from three different donors were transduced with CER1234 or CER1236 and incubated on titrating doses of plate-bound phosphatidylserine.
24 hour IFNγ stimulation by plate-bound phosphatidylserine aligns with day 5 post-activation expansion for CER1236 T cells. […] 24 hour IFNγ stimulation by plate-bound phosphatidylserine aligns with day 5 post-activation expansion for CER1234 T cells.

Molecule | uptake/engulfment of JeKo-1 PS+ (TMEM30A−/−) tumor cell fragments [1] | effective concentration that killed 25% cells (EC25) [3] [nM] | phosphatidylserine exposure on viable A2780 cells [3] | A2780 cells eliminated, single agent [4] [%] | other results
CO/C1=C\C(C)=C\[C@@H](C)[C@@H](O)[C@@H](C)C/C(C)=C/C=C/[C@H](OC)[C@@H]([C@@H](C)[C@@H](O)[C@H](C)[C@@]2(O)C[C@@H](O)[C@H](C)[C@@H](C(C)C)O2)OC1=O [Bafilomycin A, reference compound] | blocked tumor cell fragment uptake | – | – | – | –
C=C1[C@@H](C)[C@H]2[C@H](Cc3ccccc3)NC(=O)[C@]23[C@H](OC(C)=O)/C=C/[C@@](C)(O)C(=O)[C@@H](C)C/C=C/[C@H]3[C@@H]1O [Cytochalasin D, reference compound] | blocked tumor cell fragment uptake | – | – | – | –
NC(=O)c1cccc2cn(-c3ccc([C@@H]4CCCNC4)cc3)nc12 [Niraparib] | – | 500 | induce phosphatidylserine exposure on viable A2780 cells | 23 | growth of Kuramochi cells [2]: effective in inhibiting growth of Kuramochi cells; surface PtdSer (membrane phospholipid symmetry) [5]: elicits changes in membrane phospholipid symmetry, in a dose dependent manner
O=C(c1cc(Cc2n[nH]c(=O)c3ccccc23)ccc1F)N1CCN(C(=O)C2CC2)CC1 [olaparib] | – | 1500 | induce phosphatidylserine exposure on viable A2780 cells | 34 | –
CER1161: Tim4 binding domain-CD28tm-CD28icd-CD3zICD, SEQ ID NO:21 | – | – | – | – | engulfment of pHrodo red+ target cells [6]: increased engulfment of pHrodo red+target cells relative to untransduced T cells
B1 | – | – | – | – | tumor cell killing in combination with ibrutinib [7]: no additive effect with ibrutinib; cytokine induction: TNF-α, IFN-γ, IL-10, IL-5, granzyme B [8]: not induced; PD-1 and 4-1BB expression on the T-cell surface [9]: not increased; IFN-γ production in response to phosphatidylserine [10]: did not induce IFN-γ
